In assay [1] the target is Tyrosine-protein kinase BTK (Homo sapiens, UniProt Q06187). Format: functional.
For assay [2], the target named is Mitogen-activated protein kinase kinase kinase kinase 4 (Homo sapiens, UniProt O95819). Format: functional.
The target of assay [3] is Tyrosine-protein kinase Fyn (Homo sapiens, UniProt P06241). Format: functional.
For assay [4], the target named is Macrophage colony-stimulating factor 1 receptor (Homo sapiens, UniProt P07333). Format: functional.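 Note: value comes from the Navigating the Kinome screening panel, CSF1R member.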
The target in assay [5] is Tyrosine-protein kinase Lck (Homo sapiens, UniProt P06239). Format: functional.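 Note: lck was assayed as one member of a kinase panel.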
The target in assay [6] is Serine/threonine-protein kinase TAO1 (Homo sapiens, UniProt Q7L7X3). Format: functional.
For assay [7], the target named is Vascular endothelial growth factor receptor 2 (Homo sapiens, UniProt P35968). Format: functional.
A further assay addresses Misshapen-like kinase 1 (Homo sapiens, UniProt Q8N4C8). Format: functional.
The next assay deals with Focal adhesion kinase 1 (Homo sapiens, UniProt Q05397). Format: functional.
Chain of Focal adhesion kinase 1 (Q05397 whole entry): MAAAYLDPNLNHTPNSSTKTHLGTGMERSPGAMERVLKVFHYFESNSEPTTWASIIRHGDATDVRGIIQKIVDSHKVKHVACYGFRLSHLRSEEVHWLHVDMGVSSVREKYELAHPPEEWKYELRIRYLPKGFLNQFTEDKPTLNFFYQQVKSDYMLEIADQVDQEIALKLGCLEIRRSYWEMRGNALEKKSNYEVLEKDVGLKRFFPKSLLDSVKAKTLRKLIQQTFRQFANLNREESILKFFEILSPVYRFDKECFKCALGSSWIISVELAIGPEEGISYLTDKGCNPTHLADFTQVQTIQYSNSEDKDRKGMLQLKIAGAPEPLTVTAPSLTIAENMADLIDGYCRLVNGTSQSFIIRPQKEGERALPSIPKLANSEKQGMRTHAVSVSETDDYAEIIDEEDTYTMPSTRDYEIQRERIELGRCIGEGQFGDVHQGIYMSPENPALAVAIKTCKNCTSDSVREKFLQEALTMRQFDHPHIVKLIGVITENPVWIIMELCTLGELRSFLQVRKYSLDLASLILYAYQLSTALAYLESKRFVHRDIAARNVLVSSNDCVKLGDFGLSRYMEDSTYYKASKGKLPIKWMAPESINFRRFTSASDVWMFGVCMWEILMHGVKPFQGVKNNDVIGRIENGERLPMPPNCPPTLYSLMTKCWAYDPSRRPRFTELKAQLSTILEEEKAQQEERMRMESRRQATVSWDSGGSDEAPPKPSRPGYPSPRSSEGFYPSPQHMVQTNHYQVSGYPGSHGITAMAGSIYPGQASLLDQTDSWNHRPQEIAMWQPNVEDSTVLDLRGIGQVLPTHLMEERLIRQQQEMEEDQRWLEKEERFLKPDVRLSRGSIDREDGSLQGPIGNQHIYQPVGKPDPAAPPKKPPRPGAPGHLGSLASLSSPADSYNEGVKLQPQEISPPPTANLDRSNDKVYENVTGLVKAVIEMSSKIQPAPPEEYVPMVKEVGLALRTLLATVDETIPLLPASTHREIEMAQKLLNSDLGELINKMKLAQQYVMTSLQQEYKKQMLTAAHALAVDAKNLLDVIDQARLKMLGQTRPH
Assay [8] addresses Insulin-like growth factor 1 receptor (Homo sapiens, UniProt P08069). Briefly: Navigating the Kinome. Panel member name: IGF1R. Format: functional.
A further assay concerns the target Wee1-like protein kinase (Homo sapiens, UniProt P30291). Briefly: Navigating the Kinome. Panel member name: WEE1. Format: functional.
The target in assay [9] is Cell division cycle 7-related protein kinase (Homo sapiens, UniProt O00311). Format: functional.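 Note: value obtained from a kinome-wide kinase panel.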
The nature of assay [10]: SAR analysis of small molecule inhibitors of Apaf-1 using a LZ-Caspase-9/Caspase-3 Fluorescent Selectivity assay - Set 2. Format: functional. The note with it: read-out: IC50_Mean.
For a further assay, the target named is Cytochrome P450 3A4 (Homo sapiens, UniProt P08684).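 Note: CYP3A4 tested as one member of a cytochrome P450 panel screen.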
Chain of Cytochrome P450 3A4 (P08684 whole entry): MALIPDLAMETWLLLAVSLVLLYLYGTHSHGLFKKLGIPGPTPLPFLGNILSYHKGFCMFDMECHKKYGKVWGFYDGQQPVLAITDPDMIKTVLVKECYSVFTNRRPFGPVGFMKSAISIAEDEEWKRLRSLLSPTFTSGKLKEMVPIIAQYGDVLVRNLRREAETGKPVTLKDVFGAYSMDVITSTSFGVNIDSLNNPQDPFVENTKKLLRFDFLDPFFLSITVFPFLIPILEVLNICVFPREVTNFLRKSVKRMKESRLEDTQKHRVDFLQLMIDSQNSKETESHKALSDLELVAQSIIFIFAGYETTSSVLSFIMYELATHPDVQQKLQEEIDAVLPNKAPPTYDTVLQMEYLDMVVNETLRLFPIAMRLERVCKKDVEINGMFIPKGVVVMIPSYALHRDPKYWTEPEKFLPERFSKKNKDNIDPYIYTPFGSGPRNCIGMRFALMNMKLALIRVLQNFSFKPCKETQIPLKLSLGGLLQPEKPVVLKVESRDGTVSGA
In assay [11] the target is T1, Apoptotic protease-activating factor 1 (Homo sapiens, UniProt O14727).
T1 sequence (O14727 whole entry): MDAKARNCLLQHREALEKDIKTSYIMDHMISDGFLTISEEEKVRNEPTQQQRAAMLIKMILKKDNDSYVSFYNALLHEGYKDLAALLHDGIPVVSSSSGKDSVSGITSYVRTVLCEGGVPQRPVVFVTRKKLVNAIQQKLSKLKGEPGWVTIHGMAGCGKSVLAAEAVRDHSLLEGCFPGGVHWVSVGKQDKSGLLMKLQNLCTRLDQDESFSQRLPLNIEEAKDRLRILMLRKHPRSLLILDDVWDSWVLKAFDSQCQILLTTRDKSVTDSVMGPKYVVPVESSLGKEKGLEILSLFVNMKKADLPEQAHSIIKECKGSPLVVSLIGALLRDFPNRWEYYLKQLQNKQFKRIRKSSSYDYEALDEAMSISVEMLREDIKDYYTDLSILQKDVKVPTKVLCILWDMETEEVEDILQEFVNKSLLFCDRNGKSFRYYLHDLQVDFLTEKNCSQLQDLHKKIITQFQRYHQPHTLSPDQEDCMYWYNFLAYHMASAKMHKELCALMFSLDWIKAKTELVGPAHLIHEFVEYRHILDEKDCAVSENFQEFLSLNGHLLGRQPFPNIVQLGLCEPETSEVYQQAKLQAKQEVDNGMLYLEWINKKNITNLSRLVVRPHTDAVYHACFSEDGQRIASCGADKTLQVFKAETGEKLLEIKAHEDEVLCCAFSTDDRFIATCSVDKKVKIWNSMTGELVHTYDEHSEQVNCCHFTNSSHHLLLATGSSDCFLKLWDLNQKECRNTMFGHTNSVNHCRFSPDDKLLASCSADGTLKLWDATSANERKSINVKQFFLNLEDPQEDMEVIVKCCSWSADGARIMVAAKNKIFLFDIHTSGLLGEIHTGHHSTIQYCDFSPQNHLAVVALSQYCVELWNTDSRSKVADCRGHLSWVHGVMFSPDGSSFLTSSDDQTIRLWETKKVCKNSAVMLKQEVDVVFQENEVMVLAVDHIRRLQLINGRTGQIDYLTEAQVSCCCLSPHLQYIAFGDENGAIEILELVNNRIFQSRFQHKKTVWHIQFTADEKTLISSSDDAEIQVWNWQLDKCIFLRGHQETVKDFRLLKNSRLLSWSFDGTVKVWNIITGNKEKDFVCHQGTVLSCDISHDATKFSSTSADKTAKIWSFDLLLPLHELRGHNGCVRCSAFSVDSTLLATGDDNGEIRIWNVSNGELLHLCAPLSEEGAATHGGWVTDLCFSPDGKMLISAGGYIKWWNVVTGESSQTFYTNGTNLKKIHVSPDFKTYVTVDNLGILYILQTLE
Briefly: SAR analysis of small molecule Inhibitors of Apaf-1 in a Fluorescent assay - set 2. Format: functional. Particulars: read-out: IC50_Mean.

Assay [12] has as its target T2, DNA dC->dU-editing enzyme APOBEC-3A (Homo sapiens, UniProt P31941). Briefly: SAR analysis of small molecule inhibitors of APOBEC3A DNA Deaminase via a fluorescence-based single-stranded DNA deaminase assay. Format: functional. The note with it: read-out: IC50_Mean.
Assay [13] addresses T3, DNA dC->dU-editing enzyme APOBEC-3G (Homo sapiens, UniProt Q9HC16). Briefly: inhibition of APOBEC3G ssDNA deamination – biochemical, fluorescence, single-stranded DNA substrate, SAR follow-up (AID 602136). Particulars: read-out: IC50_Mean. Format: functional.
Assay [14] addresses T2, DNA dC->dU-editing enzyme APOBEC-3A. Briefly: SAR analysis of small molecule inhibitors of APOBEC3A DNA Deaminase via a fluorescence-based single-stranded DNA deaminase assay - Set 2. Format: functional. The note with it: read-out: IC50_Mean.
Assay [15] has as its target T3, DNA dC->dU-editing enzyme APOBEC-3G. Format: functional.
The target in assay [16] is T2, DNA dC->dU-editing enzyme APOBEC-3A. Briefly: Dose Response confirmation of small molecule APOBEC3A DNA Deaminase Inhibitors via a fluorescence-based single-stranded DNA deaminase assay. [Related pubchem assays (depositor defined):AID493011, AID493024]. Format: functional.
In assay [17] the target is T3, DNA dC->dU-editing enzyme APOBEC-3G. Briefly: SAR analysis of small molecule inhibitors of APOBEC3G DNA Deaminase via a fluorescence-based single-stranded DNA deaminase assay - Set 2. Format: functional. Particulars: read-out: IC50_Mean.
For assay [18], the target named is T1, Apoptotic protease-activating factor 1. Briefly: SAR analysis of small molecule inhibitors of Apaf-1 in a Fluorescent assay. Format: functional. Particulars: read-out: IC50_Mean.

Each structure is given as a SMILES string. Active and inactive are the calls of the source.

As usually defined, the Ki is the dissociation constant of the complex between target and ligand, obtained from inhibition or displacement. In general, AC50 refers to the midpoint of the concentration-response curve, whichever way the signal moves.

T3 sequence (Q9HC16 whole entry): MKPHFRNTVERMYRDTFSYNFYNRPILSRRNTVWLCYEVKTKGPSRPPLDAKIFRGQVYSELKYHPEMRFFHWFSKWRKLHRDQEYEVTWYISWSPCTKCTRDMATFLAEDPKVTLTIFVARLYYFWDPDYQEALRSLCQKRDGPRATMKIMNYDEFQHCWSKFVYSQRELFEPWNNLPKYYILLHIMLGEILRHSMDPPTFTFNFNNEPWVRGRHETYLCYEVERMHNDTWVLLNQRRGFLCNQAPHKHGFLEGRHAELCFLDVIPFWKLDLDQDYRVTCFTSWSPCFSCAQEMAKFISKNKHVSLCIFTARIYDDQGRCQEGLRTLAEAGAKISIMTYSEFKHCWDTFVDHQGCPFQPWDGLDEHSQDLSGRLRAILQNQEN
T2 sequence (P31941 whole entry): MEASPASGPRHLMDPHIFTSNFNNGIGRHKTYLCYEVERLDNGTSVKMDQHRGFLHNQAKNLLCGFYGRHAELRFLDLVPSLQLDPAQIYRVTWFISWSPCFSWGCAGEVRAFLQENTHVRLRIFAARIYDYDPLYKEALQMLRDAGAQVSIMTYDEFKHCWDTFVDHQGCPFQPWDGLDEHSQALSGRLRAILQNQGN
Chain of Wee1-like protein kinase (P30291 whole entry): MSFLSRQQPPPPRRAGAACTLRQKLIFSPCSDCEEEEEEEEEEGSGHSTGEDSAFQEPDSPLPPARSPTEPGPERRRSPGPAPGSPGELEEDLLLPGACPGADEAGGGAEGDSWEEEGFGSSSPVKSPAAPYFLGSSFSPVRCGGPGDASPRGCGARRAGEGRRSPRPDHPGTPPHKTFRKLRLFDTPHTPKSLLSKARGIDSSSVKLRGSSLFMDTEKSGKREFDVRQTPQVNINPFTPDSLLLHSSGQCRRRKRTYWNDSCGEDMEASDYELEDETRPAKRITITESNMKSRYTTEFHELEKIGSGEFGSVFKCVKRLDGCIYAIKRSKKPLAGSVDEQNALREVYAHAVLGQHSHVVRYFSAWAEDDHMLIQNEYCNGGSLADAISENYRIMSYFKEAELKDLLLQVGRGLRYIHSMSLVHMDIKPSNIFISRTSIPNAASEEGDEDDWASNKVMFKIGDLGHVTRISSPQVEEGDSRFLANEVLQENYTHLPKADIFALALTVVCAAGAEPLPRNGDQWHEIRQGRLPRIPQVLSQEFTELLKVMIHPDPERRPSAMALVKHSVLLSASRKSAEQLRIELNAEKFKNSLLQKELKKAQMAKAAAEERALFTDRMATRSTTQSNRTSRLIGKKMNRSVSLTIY
Chain of Insulin-like growth factor 1 receptor (P08069 31-736 limits assumed): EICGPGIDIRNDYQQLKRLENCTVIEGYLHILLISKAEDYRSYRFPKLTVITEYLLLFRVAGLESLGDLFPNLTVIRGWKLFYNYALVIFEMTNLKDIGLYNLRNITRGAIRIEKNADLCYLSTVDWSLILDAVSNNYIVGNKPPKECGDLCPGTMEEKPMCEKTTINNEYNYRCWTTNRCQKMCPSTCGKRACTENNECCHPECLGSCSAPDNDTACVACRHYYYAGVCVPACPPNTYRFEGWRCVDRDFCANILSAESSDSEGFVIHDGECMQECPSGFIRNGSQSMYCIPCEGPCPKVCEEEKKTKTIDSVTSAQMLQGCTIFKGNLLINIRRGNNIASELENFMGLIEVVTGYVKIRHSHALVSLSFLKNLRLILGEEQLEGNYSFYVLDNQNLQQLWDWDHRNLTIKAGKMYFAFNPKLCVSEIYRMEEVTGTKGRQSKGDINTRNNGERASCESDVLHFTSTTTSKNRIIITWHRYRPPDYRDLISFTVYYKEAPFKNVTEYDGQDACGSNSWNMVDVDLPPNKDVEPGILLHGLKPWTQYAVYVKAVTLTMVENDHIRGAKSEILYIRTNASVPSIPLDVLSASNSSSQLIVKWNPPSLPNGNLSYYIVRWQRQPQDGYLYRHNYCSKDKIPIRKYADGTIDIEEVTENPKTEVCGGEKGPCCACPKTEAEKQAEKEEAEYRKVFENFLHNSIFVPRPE
Chain of Insulin-like growth factor 1 receptor (P08069 741-1367 limits assumed): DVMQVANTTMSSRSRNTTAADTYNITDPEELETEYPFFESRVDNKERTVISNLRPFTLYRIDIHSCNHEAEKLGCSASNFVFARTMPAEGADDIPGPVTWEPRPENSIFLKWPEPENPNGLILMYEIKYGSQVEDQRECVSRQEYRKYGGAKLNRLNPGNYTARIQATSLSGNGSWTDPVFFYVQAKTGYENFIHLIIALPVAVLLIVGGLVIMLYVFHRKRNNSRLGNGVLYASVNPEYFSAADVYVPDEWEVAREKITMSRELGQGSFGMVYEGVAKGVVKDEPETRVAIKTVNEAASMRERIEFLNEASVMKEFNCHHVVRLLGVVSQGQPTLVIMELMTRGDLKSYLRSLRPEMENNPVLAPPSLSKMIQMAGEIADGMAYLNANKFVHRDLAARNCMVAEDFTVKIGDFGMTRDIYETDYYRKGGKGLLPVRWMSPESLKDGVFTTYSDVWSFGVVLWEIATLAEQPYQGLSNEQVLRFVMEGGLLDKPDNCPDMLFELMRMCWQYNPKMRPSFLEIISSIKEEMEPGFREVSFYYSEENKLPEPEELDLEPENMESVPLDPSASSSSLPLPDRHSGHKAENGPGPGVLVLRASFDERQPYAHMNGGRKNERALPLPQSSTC
Chain of Tyrosine-protein kinase Fyn (P06241 whole entry): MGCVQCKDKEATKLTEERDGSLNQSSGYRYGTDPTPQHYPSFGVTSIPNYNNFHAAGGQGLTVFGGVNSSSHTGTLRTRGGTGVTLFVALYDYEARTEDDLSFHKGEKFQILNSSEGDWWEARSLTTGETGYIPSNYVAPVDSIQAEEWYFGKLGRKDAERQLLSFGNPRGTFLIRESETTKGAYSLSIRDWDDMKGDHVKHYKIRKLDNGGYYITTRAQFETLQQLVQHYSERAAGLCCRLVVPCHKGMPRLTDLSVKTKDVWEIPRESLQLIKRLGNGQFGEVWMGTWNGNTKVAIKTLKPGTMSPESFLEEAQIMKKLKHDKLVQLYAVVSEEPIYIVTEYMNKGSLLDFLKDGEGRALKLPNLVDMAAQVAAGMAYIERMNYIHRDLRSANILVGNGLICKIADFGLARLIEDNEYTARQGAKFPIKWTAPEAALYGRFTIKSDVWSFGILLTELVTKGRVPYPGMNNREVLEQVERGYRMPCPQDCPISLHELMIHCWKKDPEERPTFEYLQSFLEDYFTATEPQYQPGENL

`O=C(Cc1ccccc1)Nc1cccc(-c2nc3sccn3c2-c2ccnc(Nc3ccccc3Cl)n2)c1`: the Ki in [1] was > 6.31 µM (inactive); in assay [2], > 5.01 µM (inactive); in assay [3], > 6.31 µM (inactive); in [4], 0.631 µM (active); in [5], > 6.31 µM (inactive); in assay [6] it was > 6.31 µM (inactive). In addition, the Ki in assay [7] was 0.501 µM (active); on Misshapen-like kinase 1, > 5.01 µM (inactive); at Focal adhesion kinase 1, 3.16 µM (active); in assay [8], 1.26 µM (active).

As to `N#Cc1cccc(Nc2ncnc(Nc3ccc(F)cc3)n2)c1`, the Ki on Wee1-like protein kinase was > 3.16 µM (inactive); in assay [9], 0.1 µM (active).

On to `O=C1C(=O)N(Cc2ccc(Cl)c(Cl)c2)c2ccccc21`, for which the IC50 in assay [10] was 22.7 µM (active); in assay [11], 34 µM (active). Also, on Cytochrome P450 3A4, the AC50 is 7.94 µM (inconclusive).

In the case of `CCC(=O)Nc1cccc(-c2nnc(SCC(=O)NCc3ccco3)n2C)c1`, the IC50 in assay [12] is 1.93 µM (active); in assay [13], 1.5 µM (active); in [14] it was 4.37 µM (active); in assay [15] it was 5.36 µM (active); in assay [16] it was 1.07 µM (active); in [17] it was 0.695 µM (active).

For `Cc1nc2cc(-c3nc4cc(NC(=O)c5cccs5)ccc4[nH]3)ccc2[nH]1`, in [18], the IC50 is 41.2 µM (active).
